Earlier results as cited in patent US11273077B2, “Wound packing material comprising chemoeffector” (priority 2015, dated 2022).

Key:
[1] = system: Pseudomonas Aeruginosa
[2] = system: Enterobacteria
[3] = system: Escherichia Coli; settings: Tar and Tsr receptor mediated

NCCCC(=O)O [GABA, gamma-aminobutyrate]
specificity of chemotaxis toward intermediates of amino acid metabolism [1]: high specificity

N[C@@H](CO)C(=O)O [L-serine]
ligand specificity as chemoattractant [2]: high ligand specificity
concentration that induces E. coli chemotaxis [3]: nanomolar range
